Data as given in publication PMC9611758, “Bioactive Platinum(IV) Complexes Incorporating Halogenated Phenylacetates” (Molecules, 2022).
“Also recorded” adds a separate entry of the source.

What was measured:
H460 lung = test: MTT growth inhibition assay, H460; format: cell-based, human; conditions: 72 h
[1] = Reduction experiments with AsA by 1H-NMR and 1D-195Pt-NMR; format: physicochemical; conditions: D2O, 37 °C; for T50% (approximate time at which 50% reduction occurs): 10 mM PBS (~7.4 pH), 1H-NMR; for extent of reduction 1 h after the final 1H-NMR experiment (1D-195Pt-NMR): PBS, regions −2800 and 400 ppm
Text: Platinum(IV) complexes are reduced to their platinum(II) precursors by intracellular biological reducing agents such as AsA or GSH in tumour cells. However, the precise mechanism by which reduction occurs is not fully understood. In this paper, reduction reaction experiments were undertaken on the synthesised platinum(IV) complexes, 1–8, with the aid of ^1H-NMR and 1D-^195Pt-NMR spectroscopy. The method used for the reduction reaction experiments was adapted from the literature without modifications. A total of 10 mM PBS (~7.4 pH) was selected as media, and AsA was used as the biological reducing agent to investigate the reduction property of 1–8. Prior to the reduction reaction experiments, a control was prepared where each metal complex was dissolved with PBS in D2O. 1D-^195Pt-NMR was measured within the regions of −2800 and 400 ppm (30 min per region), at 37 °C. This was undertaken to confirm that the PBS would not interfere with the reduction process of the metal complexes. […] The approximate time points for the studied complexes at which an estimated 50% reduction had occurred, in the presence of AsA, as represented by T50%, are summarised in Table 6.
The reduction properties of 1–8 were monitored using ^1H-NMR and 1D-^195Pt-NMR spectroscopy on a 400 MHz Bruker (Melbourne, VIC, Australia) Avance Spectrometer. A sequence of ^1H-NMR experiments was carried out for 1 h at 37 °C, followed by 1D-^195Pt-NMR within the regions of −2800 and 400 ppm. An amount of 10 mM PBS (~7.4 pH) was transferred to a vial and reduced to dryness through rotary evaporation. AsA (~1 mg) was combined with the metal complex (~5 mg) and transferred to the vial containing the dried PBS. A total of 600 µL of D2O was then added to the vial to dissolve the complex, AsA, and the PBS together.

BE2-C neuroblastoma = test: MTT growth inhibition assay, BE2-C; format: cell-based, human; conditions: 72 h
U87 glioblastoma = test: MTT growth inhibition assay, U87; format: cell-based, human; conditions: 72 h
[2] = test system: ADDP-resistant ovarian variant; test: MTT growth inhibition assay, ADDP; format: cell-based, human; conditions: MTT assay, 72 h
A2780 ovarian = test: MTT growth inhibition assay, A2780; format: cell-based, human; conditions: 72 h
Du145 prostate = test: MTT growth inhibition assay, Du145; format: cell-based, human; conditions: MTT assay, 72 h
HT29 colon = test: MTT growth inhibition assay, HT29; format: cell-based, human; conditions: MTT assay, 72 h
HT29 colon cells = test: ROS detection assay (DCFH-DA); format: cell-based, human; conditions: HT29 colon cells, treated at GI50 concentration (TBHP positive control 20 μM)
Text: Although ROS is required for cancer cell function and progression, it can induce programmed cell death or apoptosis. […] In this study, we report the ROS activity of the studied platinum(IV) complexes, 1–8, together with the individual axial ligands (4-CPA, 4-FPA, 4-BPA, and 4-IPA) in the human cancer cell line, HT29 colon (Figure 19, Table 8, and Figure S95). The ROS potential of their platinum(II) and platinum(IV) precursors in the same cell line is also presented for comparison purposes (Table 8). […] HT29 colon cells were stained by DCFH-DA and then treated with the complexes at each specific GI50 concentration. Upon ROS production, the DCFH-DA produced dichlorodihydrofluorescein, a fluorescent product. The measured fluorescence was, therefore, proportional to the produced ROS.
To investigate the presence of ROS in treated cells, a DCFDA/H2DCFDA-cellular ROS Assay Kit (Abcam, Cambridge, MA, USA) was used, as previously described. A total of 25,000 cells/mL of HT29 cells in DMEM were seeded in 96-well plates. Cells were washed with 1X kit buffer, and then stained with 25 μM 2′,7′-dichlorofluorescein diacetate (DCFH-DA) and incubated for 45 min. DCFH-DA was then removed, and cells were then re-washed with 1X kit buffer, after which phenol red free media was added. Cells were then treated with a GI50 drug concentration for each complex. The plates were directly scanned to measure fluorescence (relative fluorescence units (RFU)) at different time points using the Glo-Max®-Multimode microplate reader (Promega Corporation, Alexandra, VIC, Australia) at an excitation/emission of 485/535 nm. To generate the positive control (20 μM tert-butyl hydroperoxide (TBHP)), cells were washed with 1X kit buffer, and stained with DCFDA (25 μM) for 45 min; this was removed and TBHP was added in phenol red free media, and the resulting solution was scanned as described above.

[3] = Lipophilicity by HPLC (log kw); format: physicochemical; conditions: for log kw: chromatographic lipophilicity index, extrapolated to 100% d.i.H2O; for log kw (y-intercept of log k versus [CH3CN] % plot, Figure S80): linear fit
Text: For lipophilicity measurements, HPLC was utilised instead of the traditional shake-flask method, as described previously. Recent studies have also reported the efficiency of HPLC in measuring the lipophilicity of compounds [79, 80]. Each complex was eluted under several isocratic ratios. A standard curve was generated to calculate the log value of the capacity factor (log k) according to Equation (1). Following Equation (2), the percentage of organic solvent (CH3CN) in the mobile phase from each isocratic run was plotted against log kw (Figure S80). Log kw is the chromatographic lipophilicity index or measure of lipophilicity of the complex, so a higher value corresponds to greater lipophilicity. Because the selected axial ligands in this study contain F, Cl, Br, and I, it was only appropriate to determine the influence of the halogens on the overall lipophilicity of the platinum(IV) complexes. […] Conversely, the least lipophilic complex was the phen derivative containing 4-FPA, 3, with a log kw of 0.25. Furthermore, for the phen derivatives, the order of increasing lipophilicity was 3 > 1 > 5 > 7, which corresponds to the order of increasing size of the halogens, F > Cl > Br > I. This pattern was also observed with the 5,6-Me2phen derivatives (4 > 2 > 6 > 8), thereby confirming that the halogens increased the order of lipophilicity accordingly based on their size.
For lipophilicity measurements, analytical HPLC was utilised. Elution profiles were acquired on an Agilent (Melbourne, VIC, Australia) Technologies 1260 Infinity instrument equipped with a Phenomenex Onyx^TM Monolithic C18-reverse phase column (100 × 4.6 mm, 5 µm pore size) (Sydney, NSW, Australia). The mobile phase consisted of solvents, A (0.06% TFA in d.i.H2O) and B (0.06% TFA in CH3CN/d.i.H2O (90:10)). Potassium iodide was used as an external dead volume marker to determine the dead time of the column. Retention times (TR) were measured at varying isocratic ratios ranging from 30 to 36% of solvent B at 1 mL·min^−1 mL. An injection volume of 10 µL was utilised. Capacity factors were determined according to Equation (1):(1) k=(TR−T0)/T0 where k is the capacity factor, TR is the retention time of the analyte, and T0 represents the dead time. A minimum of four different mobile compositions were used for each complex to calculate k. A linear plot was generated of log k against the concentration of CH3CN in the mobile phase to determine the value of log kw expressed by Equation (2):(2) logk=Sφ+logkw where S is the slope, φ is the concentration of the CH3CN in the mobile phase, and log kw represents the capacity factor of the complex in 100% d.i.H2O. Extrapolation of this linear plot to the y-intercept indicates the log kw value.

[4] = test system: non-tumour derived MCF10A breast line; test: MTT growth inhibition assay, MCF10A; format: cell-based, human; conditions: 72 h
panel of cell lines = test: MTT growth inhibition assay, whole panel of cell lines; format: cell-based, human; conditions: average over the cell lines tested, MTT assay, 72 h
MCF-7 breast = test: MTT growth inhibition assay, MCF-7; format: cell-based, human; conditions: MTT assay, 72 h
A431 skin = test: MTT growth inhibition assay, A431; format: cell-based, human; conditions: 72 h
MIA pancreas = test: MTT growth inhibition assay, MIA; format: cell-based, human; conditions: 72 h
SJ-G2 glioblastoma = test: MTT growth inhibition assay, SJ-G2; format: cell-based, human; conditions: 72 h

Compound	GI50 (H460 lung) [µM]	T50% (approximate time at which 50% reduction occurs) [1] [min]	extent of reduction 1 h after the final 1H-NMR experiment (1D-195Pt-NMR) [1]	GI50 (BE2-C neuroblastoma) [µM]	GI50 (U87 glioblastoma) [µM]	GI50 [2] [µM]	GI50 (A2780 ovarian) [µM]	GI50 (Du145 prostate) [µM]	GI50 (HT29 colon) [µM]	ROS production 24 h (HT29 colon cells) [RFU]	ROS production 48 h (HT29 colon cells) [RFU]	ROS production 72 h (HT29 colon cells) [RFU]	log kw [3]	log kw (y-intercept of log k versus [CH3CN] % plot, Figure S80) [3]	GI50 [4] [µM]	GI50 (panel of cell lines) [µM]	GI50 (MCF-7 breast) [µM]	GI50 (A431 skin) [µM]	GI50 (MIA pancreas) [µM]	GI50 (SJ-G2 glioblastoma) [µM]
N[C@H]1CCCC[C@@H]1N.O=C([O-])Cc1ccc(F)cc1.[OH-].[Pt+4].c1cnc2c(c1)ccc1cccnc12 [Complex 3, [Pt^IV(phen)(SS-DACH)(4-FPA)(OH)]^2+]	0.32 ± 0.03	5 to 10	complete reduction	0.81 ± 0.2	1 ± 0.15	0.25 ± 0.01	0.34 ± 0.07	0.1 ± 0.017	0.21 ± 0.03	305 ± 28	409 ± 22	558 ± 13	0.25	0.249	0.32 ± 0.01	0.426 ± 0.06	0.74 ± 0.06	0.45 ± 0.06	0.23 ± 0.03	0.337 ± 0.06
N[C@H]1CCCC[C@@H]1N.O=C([O-])Cc1ccc(Br)cc1.[OH-].[Pt+4].c1cnc2c(c1)ccc1cccnc12 [Complex 5, [Pt^IV(phen)(SS-DACH)(4-BPA)(OH)]^2+]	0.32 ± 0.02	15 to 20	partial reduction	0.96 ± 0.12	1.1 ± 0.23	0.25 ± 0.02	0.38 ± 0.05	0.11 ± 0.011	0.19 ± 0.02	281 ± 16	399 ± 12	478 ± 9	0.87	0.8765	0.32 ± 0.02	0.457 ± 0.07	0.85 ± 0.24	0.45 ± 0.01	0.2 ± 0.02	0.35 ± 0.02
N[C@H]1CCCC[C@@H]1N.O=C(Cc1ccc(I)cc1)[O][Pt+2]1([OH])[N]2C=CC=c3ccc4c(c32)[N]1C=CC=4 [Complex 7, [Pt^IV(phen)(SS-DACH)(4-IPA)(OH)]^2+]	0.38 ± 0.059	30	partial reduction; also recorded: traces of platinum(IV) species were still observed	0.68 ± 0.038	1.01 ± 0.095	0.28 ± 0.024	0.28 ± 0.042	0.11 ± 0.025	0.22 ± 0.033	211 ± 9.1	281 ± 12	322 ± 17	0.90	0.895	0.28 ± 0.03	0.432 ± 0.06	0.49 ± 0.134	0.5 ± 0.18	0.36 ± 0.04	0.59 ± 0.023
